Measurements: US7067632B2, “VP22 proteins and uses thereof” (priority 1997, dated 2006)

Experiments:
Type in all cases: cell-based
[1] = system: acetylated form of tubulin; assay: Acetylation of MTs: colocalisation immunofluorescence and Western blot with monoclonal antibody specific for acetylated tubulin
Description: Acetylation of MTs was previously reported as a marker for MT stability (Piperno et al, J Cell Biol 104 (1987) 289–302). This has been shown by use of monoclonal antibody specific for the acetylated form of tubulin (obtainable from Sigma Chemical), in colocalisation assays by immunofluorescence, and by Western blot assays. This effect can be used as a biochemical marker for analysing and quantitating the level of MT stabilisation induced by VP22 or a variant or derviative thereof.

[2] = system: cellular microtubules (MTs) in COS 1 cells
[3] = system: cellular microtubules (MTs) in COS 1 cells; assay: Double immunofluorescence (anti-VP22, anti alpha tubulin) of COS 1 cells expressing VP22: co-localisation with and bundling of microtubules
Description: To investigate the possibility that the pattern of localisation in cells expressing VP22 represents co-localisation with a component of the cytoskeleton, COS 1 cells were transfected with the VP22 expression plasmid pGE109. Forty hours after transfection, the cells were fixed with 100% methanol and double immunofluorescence carried out with antibodies against VP22 (polyclonal AGV30) and alpha tubulin (monoclonal anti alpha tubulin, Sigma).
COS 1 cells treated in the same manner were exposed to the MT stabilising drug taxol (10 microM) for 30 minutes prior to fixation. […] The MT binding property of VP22 can also be used to deliver coupling products between VP22 and other substances, such as taxol or a related compound to MTs.

[4] = system: cellular microtubules (MTs) in COS 1 cells; assay: VP22 deletion mutants transfected into COS 1 cells, immunofluorescence with anti VP22 antibody AGV30: MT bundling and movement between cells; details: transfected COS 1 cells
Description: To broadly identify the region of VP22 involved in MT interaction, we utilised a range of C terminal deletion mutants of the protein. The plasmids encoding WT, del-267, del-192 and del-119 (FIG. 3a) forms of VP22 were transfected into COS 1 cells and analysed by immunofluorescence using the anti VP22 antibody AGV30. The del-267 and del-119 constructs comprise respectively aminoacids 1–267 inclusive, and aminoacids 1–119 inclusive of the wild type sequence of VP22 of HSV1 as disclosed in above-cited WO 97/05265 and references cited therein. The del-192 construct consists of aminoacids 1–191 inclusive plus a residue 192 mutated to leucine.
In these examples the longer sequences have increasing efficiency.

## VP22: product of the herpes simplex virus type 1 (HSV 1) UL49 gene, the structural tegument protein VP22, 32 kD
[1]
  Acetylation of MTs (marker for MT stability): associated with acetylation of the MTs
[2]; VP22 expressing COS 1 cells, nocodazole 500 ng/ml, 30 minutes
  Stabilisation of MTs against nocodazole depolymerisation: does not depolymerise the MTs
[2]; incubation of cells at 4 deg C
  Stabilisation of MTs against depolymerisation by cold: stabilised MTs against depolymerisation by 4 deg C. incubation
[3]; COS 1 cells transfected with pGE109, fixed 40 h after transfection
  Co-localisation with and bundling of the cellular MT network: colocalises and reorganises the cellular MT network into bundles
[3]; VP22 expressing COS 1 cells plus taxol 10 microM, 30 minutes
  MT bundles in VP22 expressing cells exposed to taxol: these bundles were even more striking and again co-localised with VP22
[4]
  MT bundling / cytoplasmic filament formation by VP22 forms: VP22 in cytoplasmic filaments
  Movement of the protein between cells (transport): surrounded by cells with VP22 in their nuclei

## COC(=O)Nc1nc2ccc(C(=O)c3cccs3)cc2[nH]1 [Nocodazole, nocodazole, reference compound]
[2]
  Effect of nocodazole on the MT network of untransfected cells: depolymerisation of the MT network

## 1–159: VP22 fragment consisting of residues 1–159
[4]
  MT bundling / cytoplasmic filament formation by VP22 forms: did not appear to retain the MT-bundling activity

## 1–172: variant VP22 protein consisting of residues 1–172 of the native VP22 of HSV1
[4]
  MT bundling / cytoplasmic filament formation by VP22 forms: retain in some degree the ability to bundle microtubules

## CC(=O)O[C@H]1C(=O)[C@@]2(C)[C@H]([C@H](OC(=O)c3ccccc3)[C@]3(O)C[C@H](OC(=O)[C@H](O)[C@@H](NC(=O)c4ccccc4)c4ccccc4)C(C)=C1C3(C)C)[C@]1(OC(C)=O)CO[C@@H]1C[C@@H]2O [taxol, reference compound]
[3]; untransfected COS 1 cells, taxol 10 microM, 30 minutes prior to fixation
  Effect on MTs in untransfected cells: creating large bundles of MTs
